Measurements from patent US20250382556A1, “MODULATION OF THE BRANCHED-CHAIN METABOLITE CONTENT OF FRUITS AND VEGETABLES” (BOARD OF TRUSTEES OF MICHIGAN STATE UNIVERSITY, priority 2024, published 2025).

Tested on: apple peel
Test: Free amino acid content of apple peel via UPLC-MS/MS after AHAS inhibitor treatment
Assay type: in vivo, Malus x domestica Borkh.
Set-up: key to free asparagine content compared to control / free aspartate content compared to control / free cysteine content compared to control / free glutamate content compared to control / free glutamine content compared to control / free glycine content compared to control / free histidine content compared to control / free lysine content compared to control / free methionine content compared to control / free phenylalanine content compared to control / free serine content compared to control / free threonine content compared to control / free tryptophan content compared to control / free tyrosine content compared to control / free valine content compared to control / total free amino acid content compared to control / free alanine content compared to control / free arginine content compared to control: —: Dash indicates no significant difference between treatments
Conditions: for free alanine content compared to control / free arginine content compared to control / free asparagine content compared to control / free aspartate content compared to control / free cysteine content compared to control / free glutamate content compared to control / free glutamine content compared to control / free glycine content compared to control / free histidine content compared to control / free isoleucine content compared to control / free leucine content compared to control / free lysine content compared to control / free methionine content compared to control / free phenylalanine content compared to control / free serine content compared to control / free threonine content compared to control / free tryptophan content compared to control / free tyrosine content compared to control / free valine content compared to control / total free amino acid content compared to control: 1 mM daily
Protocol: Whole apple fruit, freshly harvested and at an early stage of ripening (‘ripening’), were held at room temperature (22° C.) and rubbed daily with 3 mL of a freshly made 1mM solution of the inhibitor rimsulfuron (N-((4,6-dimethoxypyrimidin-2-yl)aminocarbonyl)-3-(ethylsulfonyl)-2-pyridinesulfonamide, made from DuPont MATRIX® SG, 25% w/w active ingredient; 0.1% Tween 20) or water solution containing 0.1% Tween 20 before preparation with further treatments. Flowering quince fruit were smaller than the apple fruit and had 2 mL of the control and treatment solutions applied daily at 22° C. ‘Gala’, ‘Empire’, and ‘Jonagold’ apple fruit were treated for four, nine, and seven days before further preparation, respectively. Flowering quince fruit were treated for six days before analysis. Headspace volatile emissions were monitored for three or four representative fruits during the incubation/treatment period to determine appropriate times for further treatments. During method testing, 1 mM solutions of the imidazolinone imazamox was also assessed with apple fruit (2-[4,5-dihydro-4-methyl-4-(1-methylethyl)-5-oxo-1H-imidazol-2-yl]-5-(methoxymethyl)-3-pyridinecarboxylic acid, made from RAPTOR®, 12.1% w/w active ingredient; 0.1% Tween 20).
After volatile analysis, apple peel disks, collected peel of flowering quince, and ‘Valery’ pulp section samples were held at −80° C. for further amino acid analysis.
Frozen samples were ground to a powder in liquid nitrogen-chilled mortar and pestles. About 500 mg of tissue was vortexed for 10 sec in 2 mL of room temperature (22° C.) extraction solution (1:1:1 water:acetonitrile:ethanol, v/v/v) spiked with 2 nmoles of U-^13C,^15N labeled amino acids (MilliporeSigma) as internal standards and heated for 15 min in a 65° C. water bath. Extracts were briefly chilled on ice before centrifugation at 4400×g for 15 min at 4° C. The supernatant was filtered by centrifugation (0.2 μm nylon centrifugal filter; Costar, Corning) at 21000×g for 5 min at room temperature. 10 μL of the filtrate was transferred to an autosampler vial and diluted 100-fold with 990 μL of 10.1 mM perfluorohexanoic acid (PFHA) spiked with […] of internal standard. Thus the final concentration of internal standard was ˜2 μM.
An amino acid standard series was prepared from a premade mixture (MilliporeSigma, AAS18) that contained equal molar amounts of cystine and all 20 proteinogenic amino acids save for tryptophan, asparagine, glutamine, and cysteine. An equal molar mixture of tryptophan, asparagine, glutamine, and cysteine was subsequently prepared. To avoid dilution errors or artefacts from differing buffers, these amino acid stocks were aliquoted and desiccated such that a five-part standard series ranging from 250 μM to 25 nM would be produced upon resuscitation with 10 μL of spiked extraction buffer and 990 μL spiked PFHA solution.
Samples and amino acids were held overnight at −20° C. before analysis. Amino acids were analyzed with a Xevo TQ-S Micro UPLC (H-Class)-MS/MS (Waters) at the Michigan State University Mass Spectrometry and Metabolomics Core. Conditions were as follows. HPLC column: Acquirt UPLC HSS T3, 2.1×100 mm, 1.7 μm particle size (Waters), with a 0.2 μm pre-column filter (Waters). Mobile phase: A) 10 mM PFHA in water, B) acetonitrile. LC gradient: linear gradient, slope setting=6, flow rate=0.3 mL·min^−1, step 1) 0 min, 100% A, 0% B, 2) 1 min, 100% A, 0% B, 3) 8 min, 35% A, 65% B, 4) 8.01 min, 10% A, 90% B, 5) 9 min, 10% A, 90% B, 6) 9.01 min, 100% A, 0% B, 7) 13 min, 100% A, 0% B. Column temp: 40° C. Autosampler temp: 10° C. Injection volume: 10 μL. Tune parameters: electrospray ionization, standard ESI probe, capillary voltage=+1.0 kV, source temp=120° C., desolvation temp=350° C., desolvation gas=800 L·hr^−1, cone gas=40 L·hr^−1. MS collection was split into three phases and were adjusted after checking the retention time of several samples; however proline was missed for apple and flowering quince samples. […]

[1] = ripening Empire apple peel, nine days
[2] = ripening Gala apple peel, four days
[3] = ripening Jonagold apple peel, seven days

CCS(=O)(=O)c1cccnc1S(=O)(=O)NC(=O)Nc1nc(OC)cc(OC)n1 [rimsulfuron, N-((4,6-dimethoxypyrimidin-2-yl)aminocarbonyl)-3-(ethylsulfonyl)-2-pyridinesulfonamide]
free alanine content compared to control [1]: —
free arginine content compared to control [1]: —
free asparagine content compared to control [1]: —
free aspartate content compared to control [1]: —
free cysteine content compared to control [1]: 261.5 ± 32.5%
free glutamate content compared to control [1]: —
free glutamine content compared to control [1]: —
free glycine content compared to control [1]: —
free histidine content compared to control [1]: —
free isoleucine content compared to control [1]: 3.3 ± 0.7%
free leucine content compared to control [1]: 422.8 ± 100.1%
free lysine content compared to control [1]: —
free methionine content compared to control [1]: 212.7 ± 26.8%
free phenylalanine content compared to control [1]: —
free serine content compared to control [1]: —
free threonine content compared to control [1]: —
free tryptophan content compared to control [1]: —
free tyrosine content compared to control [1]: —
free valine content compared to control [1]: —
total free amino acid content compared to control [1]: —
free alanine content compared to control [2]: 273.4 ± 27.4%
free arginine content compared to control [2]: —
free asparagine content compared to control [2]: —
free aspartate content compared to control [2]: 231.8 ± 18.0%
free cysteine content compared to control [2]: —
free glutamate content compared to control [2]: 146.3 ± 5.6%
free glutamine content compared to control [2]: 250.7 ± 33.5%
free glycine content compared to control [2]: —
free histidine content compared to control [2]: —
free isoleucine content compared to control [2]: 16.4 ± 6.3%
free leucine content compared to control [2]: 214.4 ± 42.2%
free lysine content compared to control [2]: —
free methionine content compared to control [2]: —
free phenylalanine content compared to control [2]: —
free serine content compared to control [2]: 300.1 ± 27.7%
free threonine content compared to control [2]: 182.3 ± 14.2%
free tryptophan content compared to control [2]: —
free tyrosine content compared to control [2]: —
free valine content compared to control [2]: —
total free amino acid content compared to control [2]: 191.5 ± 20.4%
valine following treatment (ripening Gala, Empire, Jonagold peels): unaffected
free alanine content compared to control [3]: —
free arginine content compared to control [3]: —
free asparagine content compared to control [3]: —
free aspartate content compared to control [3]: —
free cysteine content compared to control [3]: 410.6 ± 49.6%
free glutamate content compared to control [3]: —
free glutamine content compared to control [3]: —
free glycine content compared to control [3]: —
free histidine content compared to control [3]: —
free isoleucine content compared to control [3]: 4.1 ± 1.3%
free leucine content compared to control [3]: 393.2 ± 74.4%
free lysine content compared to control [3]: —
free methionine content compared to control [3]: 218.3 ± 31.0%
free phenylalanine content compared to control [3]: —
free serine content compared to control [3]: 191.9 ± 32.1%
free threonine content compared to control [3]: —
free tryptophan content compared to control [3]: —
free tyrosine content compared to control [3]: —
free valine content compared to control [3]: —
total free amino acid content compared to control [3]: —
reduction of isoleucine in the peels (ripening fruit of the three cultivars (Gala, Empire, Jonagold), on average): 92.1%
increase of leucine content (three ripening cultivars, on average): 3.4 fold
